The values below come from ChEMBL document CHEMBL1201862, “PubChem BioAssay data set” (2004).

Assay [1] has as its target T1, Protein skinhead-1 (Caenorhabditis elegans, UniProt P34707).
T1 sequence (P34707 whole entry): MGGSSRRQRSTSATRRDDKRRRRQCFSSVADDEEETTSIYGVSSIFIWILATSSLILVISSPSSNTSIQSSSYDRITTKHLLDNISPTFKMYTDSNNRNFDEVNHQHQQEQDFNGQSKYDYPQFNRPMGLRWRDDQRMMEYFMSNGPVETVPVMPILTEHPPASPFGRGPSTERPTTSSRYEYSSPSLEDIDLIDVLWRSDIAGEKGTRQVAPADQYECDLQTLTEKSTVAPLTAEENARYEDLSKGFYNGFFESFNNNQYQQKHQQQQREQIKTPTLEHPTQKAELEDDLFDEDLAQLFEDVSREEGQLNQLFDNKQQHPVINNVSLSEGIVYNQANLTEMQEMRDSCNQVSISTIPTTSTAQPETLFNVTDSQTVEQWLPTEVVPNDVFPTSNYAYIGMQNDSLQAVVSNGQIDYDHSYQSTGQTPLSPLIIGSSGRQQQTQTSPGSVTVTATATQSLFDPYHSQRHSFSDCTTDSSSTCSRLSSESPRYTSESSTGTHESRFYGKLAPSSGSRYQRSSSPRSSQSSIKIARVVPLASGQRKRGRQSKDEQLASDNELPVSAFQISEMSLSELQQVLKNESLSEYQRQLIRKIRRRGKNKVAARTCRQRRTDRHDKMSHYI
Format: functional.

In assay [2] the target is T2, Heat shock factor protein 1 (Mus musculus, UniProt P38532).
T2 sequence (P38532 whole entry): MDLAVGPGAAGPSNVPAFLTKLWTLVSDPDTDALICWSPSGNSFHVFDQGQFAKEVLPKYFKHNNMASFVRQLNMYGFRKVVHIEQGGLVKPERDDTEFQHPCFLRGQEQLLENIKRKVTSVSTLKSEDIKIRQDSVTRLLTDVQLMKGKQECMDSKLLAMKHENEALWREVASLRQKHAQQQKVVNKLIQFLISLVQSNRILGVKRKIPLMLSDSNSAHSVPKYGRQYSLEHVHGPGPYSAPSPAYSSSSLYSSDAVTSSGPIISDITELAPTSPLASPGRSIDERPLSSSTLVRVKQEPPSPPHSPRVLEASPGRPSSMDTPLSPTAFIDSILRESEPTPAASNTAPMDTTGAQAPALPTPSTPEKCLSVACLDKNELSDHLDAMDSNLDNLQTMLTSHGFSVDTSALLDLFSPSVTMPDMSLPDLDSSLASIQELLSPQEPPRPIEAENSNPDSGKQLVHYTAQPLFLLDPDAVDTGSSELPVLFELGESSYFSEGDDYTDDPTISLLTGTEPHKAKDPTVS
As to the kind of experiment: decrease of HSF1-responsive luciferase luminescence – cell-based, NIH3T3, dose retest, confirmation (AID 2382).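 Also: NIH3T3 fibroblasts with HSF1-driven luciferase reporter stressed by proteasome inhibitor MG132; luminescence from HSF1-driven luciferase expression after 8 hours of MG132 stress.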 Format: functional.

Assay [3] has as its target T2, Heat shock factor protein 1. As to the kind of experiment: enhancement of HSF1-driven luciferase signal – cell-based, NIH3T3, luminescence, dose retest, confirmation (AID 435004).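 Also: stress induced by proteasome inhibitor MG132 added 30 min after compound; luciferase reporter driven by HSF1 response element in NIH3T3 cells; actives raise luminescence as potentiators of the MG132 stress response.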 Format: functional.
Assay [4] can be described thus: Luminescence Cell-Based Dose Confirmation HTS to Identify Activators of 5'UTR Stem-Loop Driven Alpha-Synuclein mRNA Translation in H4 Neuroglioblastoma Cells. [Related pubchem assays: 1829 (Project Summary), 1814 (Primary HTS)]. Format: functional.
A short description of assay [5]: Luminescence Cell-Based Dose Response HTS to Identify Activators of Luciferase Translation or Activity in H4 […] Cells. [Related pubchem assays: 1829 (Project Summary), 1814 (Primary HTS)]. Format: functional.
Assay [6] concerns H4. The assay is described as follows: Luminescence Cell-Based Dose Response HTS to Identify Activators of 5'UTR Stem-Loop Driven Prion Protein mRNA Translation in H4 Neuroglioblastoma Cells. [Related pubchem assays: 1829 (Project Summary), 1814 (Primary HTS)]. Format: functional. The following applies: Homo sapiens.
A short description of assay [7]: luciferase reporter signal suppression in cells – H4 neuroglioma cells, luminescence, dose response (AID 1990). The class given is functional, cell-based.
The nature of assay [8]: Luminescence Cell-Based Dose Response HTS to Identify Inhibitors of 5'UTR Stem-Loop Driven Prion Protein mRNA Translation in H4 Neuroglioblastoma Cells. [Related pubchem assays: 1827 (Project Summary), 1813 (Primary HTS)]. The class given is functional.
A short description of assay [9]: alpha-synuclein stem-loop luciferase translation blockers – H4 neuroglioma cells, luminescence, confirmation (AID 1988). The class given is functional, cell-based.
The nature of assay [10]: microbe, parasite or virus in culture. The class given is functional. The following applies: Mycobacterium tuberculosis.
Assay [11] can be described thus: viability of PTEN-deleted HCT116 cells – cell-based, HCT116 PTEN knockout, dose response (AID 1047).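 Also: HCT116 colon tumor cells with PTEN knocked out; cells exposed to compound for 60 hours before readout; potency for loss of cell viability measured by luminescence.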 The class given is functional.
Assay [12] in a line: viability of HCT116 lacking mutant beta-catenin – cell-based, human colon tumor, dose response (AID 1045).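 Also: HCT116 colon tumor cells with beta catenin knocked out; cells exposed to compound for 60 hours.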 The class given is functional.
The nature of assay [13]: Luminescence Cell-Based Dose Retest to Confirm Inhibitors of Cancer Stem Cells. [Related pubchem assays (depositor defined):AID2717, AID2721]. Format: functional. As to conditions: Homo sapiens.
The nature of assay [14]: Trypanosoma cruzi growth suppression in host cells – NIH3T3 host cells, beta-gal luminescence, confirmation (AID 2044).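 Also: intracellular parasites grown in NIH/3T3 mouse fibroblasts as host cells; luminescent beta-galactosidase reporter signal from transgenic T. cruzi replicating inside host cells; inhibitors lower the luminescence signal.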 Format: functional, cell-based.
Assay [15] is described as follows: NIH3T3 cell viability loss – ATP luminescence, mouse fibroblasts, counter-screen, dose response (AID 2010).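 Also: cells exposed to compound for about 90 hours before reading.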 The class given is functional, cell-based.
In assay [16] the target is T3, Corticotropin-releasing factor receptor 2/Corticotropin-releasing factor-binding protein (Homo sapiens, UniProt P24387+Q13324).
T3 sequence (Q13324 whole entry): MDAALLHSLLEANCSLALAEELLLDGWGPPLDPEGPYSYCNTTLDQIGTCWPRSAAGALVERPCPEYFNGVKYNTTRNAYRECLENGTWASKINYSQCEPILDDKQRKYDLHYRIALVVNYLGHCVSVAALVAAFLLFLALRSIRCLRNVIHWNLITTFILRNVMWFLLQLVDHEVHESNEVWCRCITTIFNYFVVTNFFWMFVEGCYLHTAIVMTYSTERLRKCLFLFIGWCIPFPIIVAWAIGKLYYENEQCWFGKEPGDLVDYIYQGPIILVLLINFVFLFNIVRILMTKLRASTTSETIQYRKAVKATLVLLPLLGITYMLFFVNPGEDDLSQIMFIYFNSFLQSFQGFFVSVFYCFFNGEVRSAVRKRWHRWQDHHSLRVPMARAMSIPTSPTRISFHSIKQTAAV
T3 sequence (P24387 whole entry): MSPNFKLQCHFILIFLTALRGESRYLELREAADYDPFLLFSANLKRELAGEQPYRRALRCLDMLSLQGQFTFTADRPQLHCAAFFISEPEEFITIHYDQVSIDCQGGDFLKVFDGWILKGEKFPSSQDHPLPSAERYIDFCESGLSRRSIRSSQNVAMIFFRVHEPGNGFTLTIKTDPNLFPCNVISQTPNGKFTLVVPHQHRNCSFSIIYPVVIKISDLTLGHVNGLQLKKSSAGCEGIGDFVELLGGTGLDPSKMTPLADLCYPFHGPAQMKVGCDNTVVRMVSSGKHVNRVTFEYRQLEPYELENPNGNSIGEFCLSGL
As to the kind of experiment: Dose Response confirmation of uHTS hits for small molecule antagonists of the CRF-binding protein and CRF-R2 receptor complex. The class given is functional. The following applies: read-out: IC50_Mean.

For assay [17], the target named is T3, Corticotropin-releasing factor receptor 2/Corticotropin-releasing factor-binding protein. As to the kind of experiment: activators of CRF receptor 2 with binding protein – uHTS hits, confirmation (AID 602473). The class given is functional. The following applies: read-out: EC50_Mean.

Calls of active or inactive are those of the source. Rule as the data show it, for most assays here: actives have a measured EC50 and inactives only a lower limit.
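For AC50 in this document: cells exposed to compound for roughly 70 hours or longer before luminescence read.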

For the compound `Cc1cccc(C#Cc2ccccc2)n1`, in assay [1], the IC50 was > 100 µM (inactive).
In the case of `COc1cccc(/C=C/C(=O)NCc2ccc3c(c2)OCO3)c1`, in [2], the EC50 was > 195 µM (not active).
For `COCCCNc1nc2nonc2nc1N1CCN(Cc2cccc(C)c2)CC1`, the EC50 in [3] is > 260 µM (inactive).
Take `CCN(CC)C(=O)c1ccc(-c2ccccc2)cc1`: the EC50 in [2] is reported as > 195 µM (not active).
Consider `CCc1ccccc1NC(=O)c1ccc(NS(C)(=O)=O)cc1`, for which the EC50 in assay [2] is recorded as > 195 µM (not active).
`Cc1ccc(S(=O)(=O)N(CC(=O)NCc2ccco2)Cc2ccc(F)cc2)cc1`: in [3], the EC50 is > 260 µM (inactive).
Regarding `CCOC(=O)N1CCN(c2ncnc3c2cnn3-c2ccc(OC)cc2)CC1`, the IC50 in assay [1] was > 100 µM (inactive).
With `CS(=O)(=O)N(CC(=O)O)c1ccc(C23CC4CC(CC(C4)C2)C3)cc1`, the EC50 in [2] is > 195 µM (not active).
Take `Cc1oc(-c2ccccc2F)nc1CS(=O)(=O)CC(=O)NCCCN1CCN(C)CC1`: the EC50 in [3] was > 260 µM (inactive).
Regarding `Clc1ccc(C#Cc2cccnc2)cc1`, the EC50 in assay [4] is 17.4 µM (active); in assay [5] it was 24.1 µM (active); in assay [6], 1.73 µM (active). In addition, in assay [1], the IC50 was 12.6 µM (active).
As to `CCN1CCN(CCCNC(=O)c2ccc(/C=C3/Oc4ccccc4N(Cc4cccc(C)c4)C3=O)cc2)CC1`, the EC50 in assay [7] was > 120 µM (not active); in [8], > 120 µM (not active); in [9], 13.9 µM (active). For the same compound, the CC50 in assay [10] was 5.99 µM (active).
In the case of `N#CCc1ccc(NC(=O)Nc2cccc3ccccc23)cc1`, the EC50 in assay [2] is given as > 195 µM (not active).
As for `O=[N+]([O-])c1ccc(S(=O)(=O)N2CCSC2c2ccco2)cc1` (stereo not given), the EC50 in [3] was > 260 µM (inactive).
Still for that read-out and setting: then `c1ccc(COc2ccccc2CNC2CCCC2)cc1`, with > 260 µM (inactive).
Take `O=C(/C=C/c1ccncc1)c1ccc(NC(=O)c2ccccc2F)cc1`: the results for the EC50 in assay [11] and in assay [12] were 1.12 µM (active) and 0.813 µM (active), respectively. Further, in assay [13], the AC50 was 5.5 µM (active).
Take `O=C(NN=C1c2ccccc2-c2ccccc21)c1cccc(Br)c1`: the CC50 in assay [10] was 15.1 µM (active). In addition, the EC50 in [11] was 4.02 µM (active); in assay [12], 4 µM (active).
With `S=c1[nH]cc(-c2ccccc2)n1-c1ccccc1Cl`, the EC50 in assay [3] was > 260 µM (inactive).
For `CCn1c(S(=O)(=O)O)nc2ccccc21`, in [2], the EC50 is listed as > 195 µM (not active).
On to `Cc1c(C(=O)N(C)c2ccc(Cl)cc2)cnn1-c1ccccc1`, for which the IC50 in assay [1] was > 100 µM (inactive).
With `O=[N+]([O-])c1ccc(COc2ccc(-c3[nH]ncc3-c3ccc(Cl)cc3)c(O)c2)cc1`, the CC50 in [10] was > 40 µM (active). The AC50 in assay [13] is 4.02 µM (active).
In the case of `CCN1CCN(c2ccc(NC(=O)CCc3c(C)nc4c(-c5ccc(F)cc5)c(C)nn4c3C)cc2)CC1`, the EC50 in assay [14] is 1.48 µM (active); in assay [15], 32.4 µM (active). In [13], the AC50 was 2.15 µM (active).
`N#C/C(=C\c1ccco1)Sc1nc2ccccc2s1`: the EC50 in assay [4] is 13.9 µM (active); in assay [5] it was 11.8 µM (active); in assay [6], 25.6 µM (active). In assay [1], the IC50 was > 100 µM (inactive).
Regarding `CCn1c(C(=O)O)c(CC(=O)Nc2cccc(C(F)(F)F)c2)c2ccccc21`, the AC50 in assay [13] is 15.3 µM (active).
On to `Cc1c(Cl)ccc2c1NC(=O)C21NC(CCC(N)=O)[C@H]2C(=O)N(c3ccc(Cl)cc3)C(=O)[C@H]21` (stereo not given in full), for which the EC50 in assay [3] was > 260 µM (inactive); in assay [17] it was > 53 µM (inactive). For the same compound, the IC50 in assay [16] is > 47.1 µM (inactive).
Regarding `Cc1ccc2c(CN3CCN(S(=O)(=O)/C=C/c4ccccc4)CC3)cc(=O)oc2c1`, the EC50 in [3] is > 260 µM (inactive).
On to `CC(C)(C)NC1=NN=C(c2ccc(Cl)cc2)CS1`, for which, in [1], the IC50 was 13.9 µM (active).
For `CC(=O)c1cn(CC(=O)Nc2ccccc2C)c2ccccc12`, in [2], the EC50 is > 195 µM (not active).
As to `Cc1ccc(NC(=O)c2ccc(F)cc2F)cc1`, the IC50 in [1] is 79 µM (inactive).
Regarding `Cc1ccc(N(CC(=O)NCC2CCCO2)S(=O)(=O)c2ccc(Cl)cc2)cc1C` (stereo not given), in assay [1], the IC50 was > 100 µM (inactive).
As for `Cc1ccc(NC(=O)CSc2nc(N)cc(O)n2)cc1S(=O)(=O)N1CCCCCC1`, the IC50 in assay [1] was > 100 µM (inactive).
As for `Cc1cccc(N/N=C/c2ccccc2O)c1`, the AC50 in assay [13] was 6.21 µM (active).
Take `CCOc1ccc(/C=N/NC(=O)C(C)N(c2ccc(OC)cc2)S(C)(=O)=O)cc1` (stereo not given): the EC50 in assay [3] was > 260 µM (inactive).
